In patent US20230279025A1, “KRAS G12D INHIBITORS” (Mirati Therapeutics, Inc., priority 2020, published 2023):
pIC50, pKd: −log10 of the molar value.

What was measured:
KRas G12D [1] = target: T1, KRas G12D (Homo sapiens (Human), UniProt P01116, G12D); assay: KRas G12D Surface Plasmon Resonance (SPR) Binding Assay; conditions: Biacore T200, immobilized biotinylated KRAS protein, 1:1 binding model
Target sequence in this assay (P01116-2 other isoform, or with tags, fused parts or gaps G12D): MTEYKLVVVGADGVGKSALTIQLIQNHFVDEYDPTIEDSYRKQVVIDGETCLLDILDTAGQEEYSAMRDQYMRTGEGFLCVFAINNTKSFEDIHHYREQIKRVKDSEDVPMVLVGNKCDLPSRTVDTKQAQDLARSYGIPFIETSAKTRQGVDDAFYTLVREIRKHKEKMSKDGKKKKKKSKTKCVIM

KRas G12D [2] = target: T1, KRas G12D; assay: KRas G12D Binding Assay (TR-FRET displacement of Cy5 labelled tracer); conditions: GDP-loaded KRAS G12D (amino acids 1:169), 60 minute incubation at 22° C.
Description: After a 60 minute incubation at 22° C., the reaction was measured using a PerkinElmer EnVision multimode plate reader via TR-FRET dual wavelength detection, and the percent of control (POC) calculated using a ratiometric emission factor. […] The POC values were fit to a 4-parameter logistic curve and the IC50 value was determined as the concentration where the curve crosses 50 POC.
ND stands for “not determined.”
Target sequence in this assay (P01116 other isoform, or with tags, fused parts or gaps G12D): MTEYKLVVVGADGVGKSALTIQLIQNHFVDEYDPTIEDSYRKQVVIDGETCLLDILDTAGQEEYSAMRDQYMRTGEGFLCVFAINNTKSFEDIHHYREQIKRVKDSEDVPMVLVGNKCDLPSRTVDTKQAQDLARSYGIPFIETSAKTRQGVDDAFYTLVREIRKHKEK

| SMILES | pKd (KRas G12D [1]) | pIC50 (KRas G12D [2]) |
| --- | --- | --- |
| Fc1c(-c2cccc3cccc(Cl)c23)ncc2c(N3CC4CC(F)C(C3)N4)nc(OC[C@@]34CCCN3C[C@H](F)C4)nc12 (stereo partly drawn) [Example 396, 7-(8-chloronaphthalen-1-yl)-8-fluoro-4-(6-fluoro-3,8-diazabicyclo[3.2.1]octan-3-yl)-2-((2-fluorotetrahydro-1H-pyrrolizin-7a(5H)-yl)methoxy)pyrido[4,3-d]pyrimidine] | 7.46 | 6.68 |
| O=Cc1cc(CCCOc2nc(N3C[C@H]4CC[C@@H](C3)N4)c3cnc(-c4cccc5cccc(Cl)c45)c(F)c3n2)ccc1O [Example 320, 5-(3-((4-((1R,5S)-3,8-diazabicyclo[3.2.1]octan-3-yl)-7-(8-chloronaphthalen-1-yl)-8-fluoropyrido[4,3-d]pyrimidin-2-yl)oxy)propyl)-2-hydroxybenzaldehyde] | 4.15 | < 5.00 |
| CN1CCC[C@H]1COc1nc(N2C[C@H]3CC[C@@H](C2)N3)c2cnc(-c3cccc4cccc(CCC#N)c34)c(F)c2n1 [Example 117, 3-(8-(4-((1R,5S)-3,8-diazabicyclo[3.2.1]octan-3-yl)-8-fluoro-2-(((S)-1-methylpyrrolidin-2-yl)methoxy)pyrido[4,3-d]pyrimidin-7-yl)naphthalen-1-yl)propanenitrile bis(2,2,2-trifluoroacetate)] | 6.00 | 6.14 |
| COc1nc(N2C[C@H]3CC[C@@H](C2)N3)c2cnc(-c3cccc4cccc(C)c34)c(F)c2n1 [Example 317, 4-((1R,5S)-3,8-diazabicyclo[3.2.1]octan-3-yl)-8-fluoro-2-methoxy-7-(8-methylnaphthalen-1-yl)pyrido[4,3-d]pyrimidine] | 4.04 | < 5.00 |
| Cc1cccnc1CCOc1nc(N2C[C@H]3CC[C@@H](C2)N3)c2cnc(-c3cc(O)cc4ccccc34)c(F)c2n1 [Example 6, 4-(4-((1R,5S)-3,8-diazabicyclo[3.2.1]octan-3-yl)-8-fluoro-2-(2-(3-methylpyridin-2-yl)ethoxy)pyrido[4,3-d]pyrimidin-7-yl)naphthalen-2-ol] | 6.35 | 6.36 |
| CN1CCC[C@H]1COc1nc(N2CC3CCC(C2)N3)c2cnc(-c3cccc4c3CCC4O)c(F)c2n1 (stereo partly drawn) [Example 318, 4-(4-((1R,5S)-3,8-diazabicyclo[3.2.1]octan-3-yl)-8-fluoro-2-(((S)-1-methylpyrrolidin-2-yl)methoxy)pyrido[4,3-d]pyrimidin-7-yl)-2,3-dihydro-1H-inden-1-ol] | 3.43 | < 5.00 |
| Cc1cccc2cccc(-c3ncc4c(N5C[C@H]6CC[C@@H](C5)N6)nc(OCCc5nccn5C)nc4c3F)c12 [Example 100, 4-((1R,5S)-3,8-diazabicyclo[3.2.1]octan-3-yl)-8-fluoro-2-(2-(1-methyl-1H-imidazol-2-yl)ethoxy)-7-(8-methylnaphthalen-1-yl)pyrido[4,3-d]pyrimidine] | 5.96 | 5.71 |
| Cn1ccnc1CCOc1nc(N2C[C@H]3CC[C@@H](C2)N3)c2cnc(-c3cccc4cccc(Cl)c34)c(F)c2n1 [Example 114, 4-((I R,5S)-3,8-diazabicyclo[3.2.1]octan-3-yl)-7-(8-chloronaphthalen-1-yl)-8-fluoro-2-(2-(1-methyl-1H-imidazol-2-yl)ethoxy)pyrido[4,3-d]pyrimidine] | 6.42 | 6.32 |
| Oc1cc(-c2ncc3c(N4C[C@H]5CC[C@@H](C4)N5)nc(OC4CCC(F)(F)CC4)nc3c2F)c2ccccc2c1 [Example 80, 4-(4-((1R,5S)-3,8-diazabicyclo[3.2.1]octan-3-yl)-2-((4,4-difluorocyclohexyl)oxy)-8-fluoropyrido[4,3-d]pyrimidin-7-yl)naphthalen-2-ol] | < 3.30 | 6.19 |
| Oc1cc(-c2ncc3c(N4C[C@H]5CC[C@@H](C4)N5)nc(OCCN4CCOCC4)nc3c2F)c2ccccc2c1 [Example 25, 4-(4-((1R,5S)-3,8-diazabicyclo[3.2.1]octan-3-yl)-8-fluoro-2-(2-morpholinoethoxy)pyrido[4,3-d]pyrimidin-7-yl)naphthalen-2-ol] | 6.57 | 6.47 |
| Fc1c(-c2cccc3cccc(Cl)c23)ncc2c(N3C[C@H]4CC[C@@H](C3)N4)nc(OC[C@@H]3CCCN3Cc3ccccc3)nc12 [Example 97, 2-(((S)-1-benzylpyrrolidin-2-yl)methoxy)-4-((1R,5S)-3,8-diazabicyclo[3.2.1]octan-3-yl)-7-(8-chloronaphthalen-1-yl)-8-fluoropyrido[4,3-d]pyrimidine] | 5.23 | 6.03 |
| Nc1cccc(CCOc2nc(N3C[C@H]4CC[C@@H](C3)N4)c3cnc(-c4cc(O)cc5ccccc45)c(F)c3n2)n1 [Example 139, 4-(2-(2-(6-aminopyridin-2-yl)ethoxy)-4-((1R,5S)-3,8-diazabicyclo[3.2.1]octan-3-yl)-8-fluoropyrido[4,3-d]pyrimidin-7-yl)naphthalen-2-ol] | 7.60 | 6.95 |
| Oc1cc(-c2ncc3c(N4C[C@H]5CC[C@@H](C4)N5)nc(OC[C@@H]4CCCN4)nc3c2F)c2ccccc2c1 [Example 50, 4-(4-((1R,5S)-3,8-diazabicyclo[3.2.1]octan-3-yl)-8-fluoro-2-(((S)-pyrrolidin-2-yl)methoxy)pyrido[4,3-d]pyrimidin-7-yl)naphthalen-2-ol] | 8.68 | 8.60 |
| Cn1ccc(COc2nc(N3C[C@H]4CC[C@@H](C3)N4)c3cnc(-c4cc(O)cc5ccccc45)c(F)c3n2)n1 [Example 8, 4-(4-((1R,5S)-3,8-diazabicyclo[3.2.1]octan-3-yl)-8-fluoro-2-((1-methyl-1H-pyrazol-3-yl)methoxy)pyrido[4,3-d]pyrimidin-7-yl)naphthalen-2-ol] | 5.67 | 5.82 |
| OCC(O)CCOc1nc(N2C[C@H]3CC[C@@H](C2)N3)c2cnc(-c3cccc4cccc(Cl)c34)c(F)c2n1 (stereo partly drawn) [Example 57, 4-((4-((1R,5S)-3,8-diazabicyclo[3.2.1]octan-3-yl)-7-(8-chloronaphthalen-1-yl)-8-fluoropyrido[4,3-d]pyrimidin-2-yl)oxy)butane-1,2-diol] | < 3.00 | 5.14 |
| Cn1ccnc1CCNc1nc(N2C[C@H]3CC[C@@H](C2)N3)c2cnc(-c3cc(O)cc4ccccc34)c(F)c2n1 [Example 111, 4-(4-((1R,5S)-3,8-diazabicyclo[3.2.1]octan-3-yl)-8-fluoro-2-((2-(1-methyl-1H-imidazol-2-yl)ethyl)amino)pyrido[4,3-d]pyrimidin-7-yl)naphthalen-2-ol] | 6.56 | 6.55 |
| Fc1c(-c2cccc3ccccc23)ncc2c(N3C[C@H]4CC[C@@H](C3)N4)nc(OC[C@@H]3CCCN3Cc3ccccc3)nc12 [Example 108, 2-(((S)-1-benzylpyrrolidin-2-yl)methoxy)-4-((1R,5S)-3,8-diazabicyclo[3.2.1]octan-3-yl)-8-fluoro-7-(naphthalen-1-yl)pyrido[4,3-d]pyrimidine] | 4.20 | 5.32 |
| Fc1c(-c2cccc3cccc(Cl)c23)ncc2c(N3C[C@H]4CC[C@@H](C3)N4)nc(OC3CCc4[nH]ncc4C3)nc12 (stereo partly drawn) [Example 142, 4-((1R,5S)-3,8-diazabicyclo[3.2.1]octan-3-yl)-7-(8-chloronaphthalen-1-yl)-8-fluoro-2-((4,5,6,7-tetrahydro-1H-indazol-5-yl)oxy)pyrido[4,3-d]pyrimidine] | 4.86 | 5.05 |
| CO[C@@H]1C[C@@H](COc2nc(N3C[C@H]4CC[C@@H](C3)N4)c3cnc(-c4cc(O)cc5ccccc45)c(F)c3n2)N(C)C1 [Example 42, 4-(4-((1R,5S)-3,8-diazabicyclo[3.2.1]octan-3-yl)-8-fluoro-2-(((2S,4R)-4-methoxy-1-methylpyrrolidin-2-yl)methoxy)pyrido[4,3-d]pyrimidin-7-yl)naphthalen-2-ol] | 8.25 | 8.51 |
| O[C@@H]1C[C@@H]2CN(c3nc(OC[C@@]45CCCN4C[C@H](F)C5)nc4c(F)c(-c5cccc6cccc(Cl)c56)ncc34)C[C@H]1N2 [Example 395, (1R,5R,6R)-3-(7-(8-chloronaphthalen-1-yl)-8-fluoro-2-((2-fluorotetrahydro-1H-pyrrolizin-7a(5H)-yl)methoxy)pyrido[4,3-d]pyrimidin-4-yl)-3,8-diazabicyclo[3.2.1]octan-6-ol] | 8.59 | 8.16 |
| Fc1c(-c2cccc3cccc(Cl)c23)ncc2c(N3C[C@H]4CC[C@@H](C3)N4)nc(OC3CCc4cn[nH]c4C3)nc12 (stereo partly drawn) [Example 143, 4-((1R,5S)-3,8-diazabicyclo[3.2.1]octan-3-yl)-7-(8-chloronaphthalen-1-yl)-8-fluoro-2-((4,5,6,7-tetrahydro-1H-indazol-6-yl)oxy)pyrido[4,3-d]pyrimidine] | 4.83 | 5.34 |
| Fc1c(-c2cccc3cccc(Cl)c23)ncc2c(N3C[C@H]4CC[C@@H](C3)N4)nc(OCCn3cccn3)nc12 [Example 147, 2-(2-(1H-pyrazol-1-yl)ethoxy)-4-((1R,5S)-3,8-diazabicyclo[3.2.1]octan-3-yl)-7-(8-chloronaphthalen-1-yl)-8-fluoropyrido[4,3-d]pyrimidine] | 4.73 | 5.23 |
| CN1CCC[C@H]1COc1nc(N2C[C@H]3CC[C@@H](C2)N3)c2cnc(-c3cccc4c3C3(CC4)CC3)c(F)c2n1 [Example 162, 4-((1R,5S)-3,8-diazabicyclo[3.2.1]octan-3-yl)-7-(2′,3′-dihydrospiro[cyclopropane-1,1′-inden]-7′-yl)-8-fluoro-2-(((S)-1-methylpyrrolidin-2-yl)methoxy)pyrido[4,3-d]pyrimidine bis(2,2,2-trifluoroacetate)] | 6.26 | 6.17 |
| Oc1cc(-c2ncc3c(N4C[C@H]5CC[C@@H](C4)N5)nc(OCC4(C(F)(F)F)CC4)nc3c2F)c2ccccc2c1 [Example 51, 4-(4-((1R,5S)-3,8-diazabicyclo[3.2.1]octan-3-yl)-8-fluoro-2-((1-(trifluoromethyl)cyclopropyl)methoxy)pyrido[4,3-d]pyrimidin-7-yl)naphthalen-2-ol] | 6.21 | 6.54 |
